From the NIST ThermoML archive (doi:10.1021/je050169y)

Tests used:
[1] = 101 kPa, Liquid
[2] = xn = mol fraction of the nth substance listed; settings: 101 kPa, Liquid

CCCCO [butan-1-ol]
[1]
Settings | mass density [kg/m3] | speed of sound [m/s] | viscosity [mPa·s]
303.15 K | 802.31 | 1227 | 2.274
313.15 K | 794.37 | 1193 | 1.783

CCCCO [butan-1-ol] + ClC(Cl)Cl
[2], x2 = 0
Settings | mass density [kg/m3] | speed of sound [m/s] | viscosity [mPa·s]
303.15 K | 802.31 | 1227 | 2.274
313.15 K | 794.37 | 1193 | 1.783

CCCO [propan-1-ol]
[1]
Settings | mass density [kg/m3] | speed of sound [m/s] | viscosity [mPa·s]
303.15 K | 796.66 | 1193 | 1.719
313.15 K | 788.31 | 1159 | 1.363

CCCO [propan-1-ol] + ClC(Cl)Cl
[2], x2 = 0
Settings | mass density [kg/m3] | speed of sound [m/s] | viscosity [mPa·s]
303.15 K | 796.66 | 1193 | 1.719
313.15 K | 788.31 | 1159 | 1.363

ClC(Cl)Cl [trichloromethane]
[1]
Settings | mass density [kg/m3] | speed of sound [m/s] | viscosity [mPa·s]
303.15 K | 1469.21 | 969 | 0.534
313.15 K | 1449.74 | 934 | 0.491

ClC(Cl)Cl [trichloromethane] + CCCCO
[2]
Settings | mass density, 303.15 K [kg/m3] | mass density, 313.15 K [kg/m3] | speed of sound, 303.15 K [m/s] | speed of sound, 313.15 K [m/s] | viscosity, 303.15 K [mPa·s] | viscosity, 313.15 K [mPa·s]
x1 = 0.0512 | – | 823.95 | – | 1172 | – | 1.67
x1 = 0.0513 | 832.44 | – | 1207 | – | 2.125 | –
x1 = 0.0999 | 861.44 | – | 1189 | – | 1.989 | –
x1 = 0.1 | – | 852.45 | – | 1154 | – | 1.566
x1 = 0.149 | 890.91 | 881.47 | 1170 | 1135 | 1.829 | 1.45
x1 = 0.2009 | 922.47 | 912.53 | 1152 | 1116 | 1.683 | 1.341
x1 = 0.2506 | 953.06 | 942.58 | 1134 | 1098 | 1.531 | 1.23
x1 = 0.2999 | 983.75 | 972.85 | 1118 | 1081 | 1.394 | 1.136
x1 = 0.3659 | 1025.5 | 1013.85 | 1097 | 1060 | 1.224 | 1.018
x1 = 0.407 | 1051.86 | 1039.75 | 1084 | 1047 | 1.137 | 0.943
x1 = 0.4515 | 1080.69 | 1067.95 | 1071 | 1034 | 1.045 | 0.878
x1 = 0.4997 | 1112.25 | 1099 | 1056 | 1019 | 0.96 | 0.82
x1 = 0.5502 | 1145.88 | 1132.03 | 1043 | 1006 | 0.877 | 0.758
x1 = 0.6011 | 1180.26 | – | 1030 | – | 0.82 | –
x1 = 0.6012 | – | 1165.78 | – | 993 | – | 0.712
x1 = 0.6527 | 1215.51 | 1200.35 | 1018 | 981 | 0.754 | 0.671
x1 = 0.702 | 1249.87 | – | 1007 | – | 0.709 | –
x1 = 0.7021 | – | 1234 | – | 970 | – | 0.633
x1 = 0.7519 | 1285.1 | 1268.52 | 997 | 961 | 0.676 | 0.615
x1 = 0.802 | 1320.98 | – | 989 | – | 0.636 | –
x1 = 0.8021 | – | 1303.85 | – | 952 | – | 0.579
x1 = 0.8517 | 1357.17 | – | 981 | – | 0.622 | –
x1 = 0.8518 | – | 1339.4 | – | 945 | – | 0.572
x1 = 0.9023 | 1394.7 | – | 975 | – | 0.587 | –
x1 = 0.9024 | – | 1376.18 | – | 939 | – | 0.547
x1 = 0.9509 | 1431.43 | – | 971 | – | 0.569 | –
x1 = 0.951 | – | 1412.42 | – | 936 | – | 0.524
x1 = 1 | 1469.21 | 1449.74 | 969 | 934 | 0.534 | 0.491

ClC(Cl)Cl [trichloromethane] + CCCO
[2]
Settings | mass density, 303.15 K [kg/m3] | mass density, 313.15 K [kg/m3] | speed of sound, 303.15 K [m/s] | speed of sound, 313.15 K [m/s] | viscosity, 303.15 K [mPa·s] | viscosity, 313.15 K [mPa·s]
x1 = 0.0521 | 834.23 | 825.28 | 1171 | 1136 | 1.628 | 1.302
x1 = 0.0996 | 868.17 | 858.68 | 1153 | 1117 | 1.541 | 1.243
x1 = 0.1504 | 904.1 | 894.03 | 1134 | 1098 | 1.435 | 1.163
x1 = 0.201 | 939.51 | 928.92 | 1116 | 1080 | 1.331 | 1.077
x1 = 0.2498 | 973.47 | 962.29 | 1100 | 1064 | 1.233 | 1.013
x1 = 0.3057 | 1011.95 | 1000.09 | 1083 | 1047 | 1.113 | 0.919
x1 = 0.3499 | 1042.15 | 1029.85 | 1070 | 1034 | 1.044 | 0.872
x1 = 0.4031 | 1078.28 | 1065.26 | 1056 | 1018 | 0.956 | 0.811
x1 = 0.451 | 1110.46 | 1097 | 1042 | 1006 | 0.884 | 0.752
x1 = 0.5056 | 1147.02 | 1132.88 | 1028 | 992 | 0.813 | 0.703
x1 = 0.5541 | 1179.18 | 1164.5 | 1017 | 981 | 0.76 | 0.662
x1 = 0.5994 | 1209.1 | 1193.91 | 1007 | 972 | 0.723 | 0.635
x1 = 0.6511 | 1243.11 | 1227.27 | 997 | 961 | 0.68 | 0.605
x1 = 0.7033 | 1277.26 | 1260.87 | 988 | 951 | 0.654 | 0.592
x1 = 0.7506 | 1308.1 | 1291.08 | 980 | 944 | 0.629 | 0.57
x1 = 0.8 | 1340.17 | 1322.66 | 974 | 939 | 0.608 | 0.558
x1 = 0.8507 | 1373.01 | 1354.88 | 970 | 933 | 0.596 | 0.547
x1 = 0.9001 | 1404.92 | 1386.24 | 967 | 931 | 0.579 | 0.531
x1 = 0.9484 | 1436.03 | 1416.96 | 966 | 931 | 0.562 | 0.517
x1 = 1 | 1469.21 | 1449.74 | 969 | 934 | 0.534 | 0.491
